# Results published in patent US20260193229A1, “BRISC DEUBIQUITINATING ENZYME INHIBITORS” (THE TRUSTEES OF THE UNIVERSITY OF PENNSYLVANIA, priority 2022, published 2026).
# Molecular target: T1, BRISC (Homo sapiens, UniProt P46736+Q15018)
# T1 construct: made in house; host or cells: insect cells (MultiBac baculovirus)
# Assay: BRISC DUB inhibition assay with quenched K63-linked di-ubiquitin substrate (TAMRA fluorescence)
# Format: biochemical
# Conditions: Table 1, Activity Range Table
# Method: High throughput screening. A baculoviral expression system was established to purify milligram quantities of the entire BRISC complex from insect cells. The MultiBac system was used to clone all 4 components of the BRISC complex into one vector which was then packaged into the baculovirus genome using the methods described in Zeqiraj et al., 2015 (Mol. Cell).
# The assay buffer included: 50 mM HEPES-NaOH, pH 7.0; 100 mM NaCl; 1 mM DTT; 1 mg/ml BSA; and 0.03% Brij-35. BRISC was assayed at 1 nM (final concentration) with the substrate at 500 nM (final concentration). The final reaction volume was 20 μl in each 384 plate well (Corning, #3573; black, low flange, flat bottom) with a final concentration of compounds of 10 μM.
# A 5 ml of enzyme solution with BRISC at 2 nM in assay buffer was made by adding 10 μl of BRISC working stock (1 μM) to 5 ml of assay buffer. A 5 ml of substrate solution was made with […] of K63-diUbiquitin (made in-house) plus […] of IQF K63-diUbiquitin by adding the appropriate volumes of diUbiquitins to 5 ml of assay buffer. 45 μL of BRISC (enzyme solution) was dispensed into columns 1-11 of a 96 well PCR plate (skirted). Buffer was only dispensed in column 12 (no enzyme control). 45 μl of substrate solution was dispensed into columns 1-12 of a 96 well PCR plate (skirted). The plate was spun down at 3000 rpm (bench top centrifuge) at room temp for 2 min to remove any air bubbles. Using a Biomek FX, liquid handler (Bekman), 10 μl of BRISC (enzyme solution) was dispensed into the 4 quadrants of a 384 well plate. 200 nl of compounds was dispensed into each well of the 384 plates using the pin tool (columns A and B usually contain DMSO only, and serve as controls), and the plates were incubated for 10-15 minutes at room temperature. 10 μl of substrate solution was dispensed into the 4 quadrants of the 384 well plate. The plate was then incubated for 30 min at room temperature in the dark and read with settings suitable for detecting TAMRA fluorescence (excitation wavelength of 540 nm and emission wavelength of 580 nm). A PHERAStar plate (BMG labtech) reader was used with a gain value of 570. The Intensity/Background (I/Bg), defined as [(Average of columns 1 and 2; DMSO controls)/(Average of columns 23 and 24; no enzyme controls)], were about 5.
# The activities of the compounds disclosed in the present disclosure in inhibiting BRCC36 enzyme activity was measured in accordance with the method disclosed in Example 2.
row,SMILES,IC50
1,COC(=O)c1ccccc1NC(=O)n1cc(NC(=O)c2c(Cl)cccc2Cl)c(C(=O)NCCCN2CCCC2)n1 [Compound 21],50 to 300 µM
2,O=C(NC1CCNCC1)c1nn(S(=O)(=O)c2cccc(Cl)c2)cc1NC(=O)c1c(Cl)cccc1Cl [Compound 24],50 to 300 µM
3,O=C(NC1CCNCC1)c1nn(S(=O)(=O)c2ccccc2Cl)cc1NC(=O)c1c(Cl)cccc1Cl [Compound 25],50 to 300 µM
4,O=C(NC1CCNCC1)c1nn(S(=O)(=O)c2cc(C(F)(F)F)ccc2Cl)cc1NC(=O)c1c(Cl)cccc1Cl [Compound 26],50 to 300 µM
5,O=C(NC1CCNCC1)c1nn(S(=O)(=O)c2cc(Cl)cc(C(F)(F)F)c2)cc1NC(=O)c1c(Cl)cccc1Cl [Compound 27],50 to 300 µM
6,"C#CCCCCOC(=O)COc1ccc(S(=O)(=O)n2cc(NC(=O)c3c(Cl)cccc3Cl)c(C(=O)NC3CCNCC3)n2)cc1 [Compound 32, Hex-5-ynyl 2-(4-(4-(2,6-dichlorobenzamido)-3-(piperidin-4-ylcarbamoyl)-1H-pyrazol-1-ylsulfonyl)phenoxy)acetate]",10 to 50 µM
7,"COC(=O)COc1ccc(S(=O)(=O)n2cc(NC(=O)c3c(Cl)cccc3Cl)c(C(=O)NC3CCNCC3)n2)cc1 [Compound 33, Methyl 2-(4-(4-(2,6-dichlorobenzamido)-3-(piperidin-4-ylcarbamoyl)-1H-pyrazol-1-ylsulfonyl)phenoxy)acetate]",50 to 300 µM
8,"NCCCOc1ccc(S(=O)(=O)n2cc(NC(=O)c3c(Cl)cccc3Cl)c(C(=O)NC3CCNCC3)n2)cc1 [Compound 34, 1-(4-(3-aminopropoxy)phenylsulfonyl)-4-(2,6-dichlorobenzamido)-N-(piperidin-4-yl)-1H-pyrazole-3-carboxamide]",50 to 300 µM
9,O=C(NC1CCNCC1)c1nn(C(=O)Nc2ccc(Cl)cc2)cc1NC(=O)c1c(Cl)cccc1Cl [Compound 35],50 to 300 µM
10,O=C(NC1CCNCC1)c1nn(C(=O)Nc2cccc(Cl)c2)cc1NC(=O)c1c(Cl)cccc1Cl [Compound 36],50 to 300 µM

# The remaining lines, values ahead:
row,IC50,SMILES
1,1 to 10 µM,O=C(NC1CCNCC1)c1nn(S(=O)(=O)c2cc(Cl)cc(Cl)c2)cc1NC(=O)c1c(Cl)cccc1Cl [Compound 3]
2,1 to 10 µM,O=C(NC1CCNCC1)c1nn(S(=O)(=O)c2ccc(Cl)cc2)cc1NC(=O)c1c(Cl)cccc1Cl [Compound 4]
3,10 to 50 µM,O=C(NC1CCNCC1)c1nn(S(=O)(=O)c2ccccc2)cc1NC(=O)c1c(Cl)cccc1Cl [Compound 5]
4,1 to 10 µM,O=C(NC1CCNCC1)c1nn(S(=O)(=O)CCc2ccccc2)cc1NC(=O)c1c(Cl)cccc1Cl [Compound 6]
5,1 to 10 µM,O=C(Nc1cn(C(=O)c2c(Cl)cccc2Cl)nc1C(=O)N1CCNCC1)c1c(Cl)cccc1Cl [Compound 7]
6,1 to 10 µM,O=C(N[C@@H]1CCNC1)c1nn(C(=O)c2c(Cl)cccc2Cl)cc1NC(=O)c1c(Cl)cccc1Cl [Compound 8]
7,1 to 10 µM,O=C(N[C@H]1CCNC1)c1nn(C(=O)c2c(Cl)cccc2Cl)cc1NC(=O)c1c(Cl)cccc1Cl [Compound 9]
8,1 to 10 µM,NCCCNC(=O)c1nn(C(=O)c2c(Cl)cccc2Cl)cc1NC(=O)c1c(Cl)cccc1Cl [Compound 10]
9,1 to 10 µM,CN(C(=O)c1nn(C(=O)c2c(Cl)cccc2Cl)cc1NC(=O)c1c(Cl)cccc1Cl)C1CCNCC1 [Compound 11]
10,1 to 10 µM,CC1CNCCC1NC(=O)c1nn(C(=O)c2c(Cl)cccc2Cl)cc1NC(=O)c1c(Cl)cccc1Cl (centres unmarked) [Compound 12]
11,1 to 10 µM,O=C(NC1C2CNCC21)c1nn(C(=O)c2c(Cl)cccc2Cl)cc1NC(=O)c1c(Cl)cccc1Cl (centres unmarked) [Compound 13]
12,10 to 50 µM,CN(C(=O)c1nn(C(=O)c2c(Cl)cccc2Cl)cc1NC(=O)c1c(Cl)cccc1Cl)C1CNC1 [Compound 15]
13,10 to 50 µM,O=C(NC1CNC1)c1nn(C(=O)c2c(Cl)cccc2Cl)cc1NC(=O)c1c(Cl)cccc1Cl [Compound 17]
14,10 to 50 µM,"COc1ccccc1NC(=O)n1cc(NC(=O)c2c(Cl)cccc2Cl)c(C(=O)NC2CCNCC2)n1 [Compound 18, 4-(2,6-dichlorobenzamido)-N1-(2-methoxyphenyl)-N3-(piperidin-4-yl)-1H-pyrazole-1,3-dicarboxamide]"
15,10 to 50 µM,COc1ccccc1NC(=O)n1cc(NC(=O)c2c(Cl)cccc2Cl)c(C(=O)NC2CCNCC2)n1 [Compound 19]
16,10 to 50 µM,O=C(NCCN1CCCC1)c1nn(C(=O)c2c(Cl)cccc2Cl)cc1NC(=O)c1c(Cl)cccc1Cl [Compound 20]
17,10 to 50 µM,C[N+]1(C)CCC(NC(=O)c2nn(C(=O)c3c(Cl)cccc3Cl)cc2NC(=O)c2c(Cl)cccc2Cl)CC1 [Compound 29]
18,1 to 10 µM,"O=C(NC1CCNCC1)c1nn(S(=O)(=O)c2ccc(OCCCN3C(=O)c4ccccc4C3=O)cc2)cc1NC(=O)c1c(Cl)cccc1Cl [Compound 30, 4-(2,6-dichlorobenzamido)-1-(4-(3-(1,3-dioxoisoindolin-2-yl)propoxy)phenylsulfonyl)-N-(piperidin-4-yl)-1H-pyrazole-3-carboxamide]"
19,1 to 10 µM,O=C(NC1CCNCC1)c1nn(S(=O)(=O)CCc2ccc(Cl)cc2)cc1NC(=O)c1c(Cl)cccc1Cl [Compound 31]
20,1 to 10 µM,CN1CCC(NC(=O)c2nn(C(=O)c3c(Cl)cccc3Cl)cc2NC(=O)c2c(Cl)cccc2Cl)CC1 [Compound 37]

# Same assay, conditions: Table 2, method of Example 2; read-out: BRISC IC50 μM Range
row,IC50,SMILES
1,1 to 10 µM,"C#CCCCCOc1ccc(S(=O)(=O)n2cc(NC(=O)c3c(Cl)cccc3Cl)c(C(=O)NC3CCNCC3)n2)cc1 [Compound 41, 4-(2,6-Dichlorobenzamido)-1-(4-(hex-5-ynyloxy)phenylsulfonyl)-N-(piperidin-4-yl)-1H-pyrazole-3-carboxamide]"
2,10 to 50 µM,COC(=O)c1cnc2c(SCc3ccccn3)cccc2c1 [Compound 54]
3,1 to 10 µM,C[C@@H]1CNCCN1C(=O)c1nn(C(=O)c2c(Cl)cccc2Cl)cc1NC(=O)c1c(Cl)cccc1Cl [Compound 55]

row,SMILES,IC50
1,"CCOc1cc(C(C)(C)C)ccc1C1=N[C@@](C)(c2ccc(Cl)cc2)[C@@](C)(c2ccc(Cl)cc2)N1C(=O)N1CCN(CC(=O)NCCOCCOCCn2cc(CCCCOc3ccc(S(=O)(=O)n4cc(NC(=O)c5c(Cl)cccc5Cl)c(C(=O)NC5CCNCC5)n4)cc3)nn2)CC1 [Compound 42, 1-(4-(4-(1-(2-(2-(2-(2-(4-((4S,5R)-2-(4-Tert-butyl-2-ethoxyphenyl)-4,5-bis(4-chlorophenyl)-4,5-dimethyl-4,5-dihydro-1H-imidazole-1-carbonyl)piperazin-1-yl)acetamido)ethoxy)ethoxy)ethyl)-1H-1,2,3-triazol-4-yl)butoxy)phenylsulfonyl)-4-(2,6-dichlorobenzamido)-N-(piperidin-4-yl)-1H-pyrazole-3-carboxamide]",0.1 to 1 µM
2,"Cc1ncsc1-c1ccc(CNC(=O)[C@@H]2C[C@H](O)CN2C(=O)[C@@H](NC(=O)COCCOCCOCCn2cc(CCCCOc3ccc(S(=O)(=O)n4cc(NC(=O)c5c(Cl)cccc5Cl)c(C(=O)NC5CCNCC5)n4)cc3)nn2)C(C)(C)C)cc1 [Compound 43, 4-(2,6-dichlorobenzamido)-1-(4-(4-(1-((S)-13-((2S,4S)-4-hydroxy-2-(4-(4-methylthiazol-5-yl)benzylcarbamoyl)pyrrolidine-1-carbonyl)-14,14-dimethyl-11-oxo-3,6,9-trioxa-12-azapentadecyl)-1H-1,2,3-triazol-4-yl)butoxy)phenylsulfonyl)-N-(piperidin-4-yl)-1H-pyrazole-3-carboxamide]",0.1 to 1 µM
